Source: patent US8658665B2, “3,6-disubstituted xanthylium salts and use thereof in treatment of tauopathies” (WisTa Laboratories Ltd., priority 2008, dated 2014)
Where a name gives a salt, the structure may show the parent alone.

Assays:
fibroblast cells (3T6) = conditions: for LD50: cell numbers after 24 hrs exposure, lactate dehydrogenase assay kit, mean ± SE, number of replications in parentheses; for RxI: therapeutic index, RxI=LD50/EC50
Procedure: Toxicity of the compounds described herein was assessed in the cell based assay used to assess EC50. Toxicity was measured by cell numbers after 24 hrs exposure to the compound using a lactate dehydrogenase assay kit TOX-7 (Sigma Biosciences) according to the manufacturer's instructions after lysis of remaining cells. Alternatively a kit from Promega UK (CytoTox 96) was used, again according to the manufacturer's instructions.
The therapeutic index (RxI) was calculated as follows: RxI=LD50/EC50.

[1] = target: T1, tau-tau binding: truncated tau (residues 297-390; dGA) on solid phase, full-length tau (T40) in aqueous phase (Homo sapiens, UniProt P10636); assay: In vitro assay for establishing B50 (tau-tau binding); conditions: concentration required to inhibit tau-tau binding by 50%; mean ± SE, number of replications in parentheses; NE = no effect when tested to 500 μM
T1 construct: truncated tau (residues 297-390; dGA); full-length tau (T40) was added in the aqueous phase
From the text: Briefly, a fragment of tau corresponding to the core repeat domain, which has been adsorbed to a solid phase substrate, is able to capture soluble full-length tau and bind tau with high affinity. This association confers stability against proteolytic digestion of the aggregated tau molecules.
The aqueous phase binding buffer contained 0.05% Tween-20 and 1% gelatine in phosphate-buffered saline (pH7.4).
The concentration of compound required to inhibit the tau-tau binding by 50% is referred to as the B50 value.

[2] = test system: fibroblast cells (3T6) expressing full-length tau (T40) and the 12 kD PHF-core tau fragment; assay: Cell-based assay for establishing EC50 (inhibition of generation of the 12 kD tau fragment)
From the text: In essence, fibroblast cells (3T6) express full-length tau (“T40”) under control of an inducible promotor, and low constitutive levels of the PHF-core tau fragment (12 kD fragment).
This is referred to as the EC50 value.

T1 sequence (P10636 614-707): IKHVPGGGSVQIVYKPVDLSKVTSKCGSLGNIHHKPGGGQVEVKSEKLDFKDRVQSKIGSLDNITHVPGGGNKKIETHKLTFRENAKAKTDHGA

Compound: CCN(CC)c1cc2oc3cc(N(CC)CC)cc4oc5cc(=[N+](CC)CC)cc6oc(c1)c2c(c34)c65 [AL, 2,6,10-tris-diethylamino-4,8,12-trioxatrianguleum hexafluorophosphate]
- LD50 (fibroblast cells (3T6)): 8 ± 4 (6) μM
- RxI (fibroblast cells (3T6)): 62
- IC50 [1]: 8.5 ± 0.9 µM
- EC50 [2]: 0.13 ± 0.07 µM

Compound: O=[N+]([O-])[O-].c1cc2cc3ccc(N4CCCCC4)cc3[o+]c2cc1N1CCCCC1 [Compound AG, 3,6-Bis-piperidino-xanthylium nitrate]
- LD50 (fibroblast cells (3T6)): 13.8 ± 6.2 (8) μM
- RxI (fibroblast cells (3T6)): 12
- IC50 [1]: 257 ± 50.3 µM
- EC50 [2]: 1.12 ± 0.75 µM

Compound: O=[N+]([O-])[O-].c1c2c3c(c4[o+]c5c6c7c(cc5cc14)CCCN7CCC6)CCCN3CCC2 [Compound B, 2,3,6,7,12,13,16,17-Octahydro-1H,5H,11H,15H-diquinolizino[1,9-bc:1′,9′-hi]xanthylium nitrate]
- LD50 (fibroblast cells (3T6)): 30.8 ± 4.6 (4) μM
- RxI (fibroblast cells (3T6)): 3802
- IC50 [1]: 254 ± 26.4 µM

Compound: CCN(CC)c1ccc2cc3ccc(N(CC)CC)cc3[s+]c2c1.[I-] [K, 3,6-Bis(diethylamino)thioxanthylium Iodide]
- LD50 (fibroblast cells (3T6)): 21.2 ± 12 (3) μM
- RxI (fibroblast cells (3T6)): 91
- IC50 [1]: > 500 µM
- EC50 [2]: 0.23 ± 0.13 µM

Compound: CN(C)c1ccc2nc3ccc(N(C)C)cc3[s+]c2c1 [MTC, reference compound]
- EC50 [2]: 0.59 ± 0.04 µM

Compound: CCN(CC)c1ccc2c(-c3ccc([N+](=O)[O-])cc3)c3ccc(N(CC)CC)cc3[o+]c2c1.O=[N+]([O-])[O-] [Compound AD, 3,6-Bis-diethylamino-9-(4-nitrophenyl)xanthylium nitrate]
- LD50 (fibroblast cells (3T6)): 19 ± 9 (5) μM
- RxI (fibroblast cells (3T6)): 54
- EC50 [2]: 0.35 ± 0.1 µM

Compound: CC[N+](CC)=c1ccc2nc3ccc(N(C)C)cc3oc-2c1 [AN, 3-Diethylamino-7-dimethylaminooxazinium perchlorate]
- LD50 (fibroblast cells (3T6)): 167 ± 29 (6) μM
- RxI (fibroblast cells (3T6)): 309
- IC50 [1]: > 500 µM
- EC50 [2]: 0.54 ± 0.08 µM

Compound: Cl.Cl.c1cc2c(cc1N1CCOCC1)Oc1cc(N3CCOCC3)ccc1C2 [Compound AI, 3,6-Bis-morpholino xanthene dihydrochloride]
- LD50 (fibroblast cells (3T6)): 280 ± 121 (10) μM
- RxI (fibroblast cells (3T6)): 17
- IC50 [1]: > 500 µM
- EC50 [2]: 16 ± 11 µM

Compound: O=[N+]([O-])[O-].c1cc2cc3ccc(N4CCCC4)cc3[o+]c2cc1N1CCCC1 [Compound AH, 3,6-Bis-pyrrolidino-xanthylium nitrate]
- LD50 (fibroblast cells (3T6)): 121 ± 52 (12) μM
- RxI (fibroblast cells (3T6)): 465
- IC50 [1]: 129 ± 15.5 µM
- EC50 [2]: 0.26 ± 0.073 µM

Compound: [Cl-].c1c2c3c(c4[o+]c5c6c7c(cc5cc14)CCCN7CCC6)CCCN3CCC2 [Compound A, 2,3,6,7,12,13,16,17-Octahydro-1H,5H,11H,15H-diquinolizino[1,9-bc:1′,9′-hi]xanthylium chloride]
- LD50 (fibroblast cells (3T6)): 19 ± 2.7 (22) μM
- RxI (fibroblast cells (3T6)): 3115
- IC50 [1]: 33.8 ± 5.2 µM
- EC50 [2]: 0.0061 ± 0.0024 µM

Compound: CCN(CC)c1ccc(-c2c3ccc(=[N+](CC)CC)cc-3oc3cc(N(CC)CC)ccc23)cc1 [Compound AC]
- LD50 (fibroblast cells (3T6)): 14.5 ± 8.4 (8) μM
- RxI (fibroblast cells (3T6)): 34
- IC50 [1]: 129 ± 11.9 µM
- EC50 [2]: 1.43 ± 0.14 µM

Compound: CN(C)c1ccc2nc3ccc(=[N+](C)C)cc-3oc2c1 [O, 3,7-bis(dimethylamino)oxazinium chloride]
- LD50 (fibroblast cells (3T6)): 115 ± 17 (9) μM
- RxI (fibroblast cells (3T6)): 29
- IC50 [1]: 190 ± 33.2 µM
- EC50 [2]: 3.9 ± 3.5 µM

Compound: Cl.Cl.c1cc2c(cc1N1CCCCC1)Oc1cc(N3CCCCC3)ccc1C2 [Compound AK, 3,6-Bis-piperidino xanthene dihydrochloride]
- LD50 (fibroblast cells (3T6)): 44 ± 26 (8) μM
- RxI (fibroblast cells (3T6)): 69
- IC50 [1]: 284 ± 101 µM
- EC50 [2]: 0.64 ± 0.27 µM

Compound: CCc1c2ccc(N(CC)CC)cc2[o+]c2cc(N(CC)CC)ccc12.[Cl-] [Compound J, 9-Ethyl-3,6-bis-diethylamino Xanthylium Chloride]
- LD50 (fibroblast cells (3T6)): 17 ± 3 (10) μM
- RxI (fibroblast cells (3T6)): 1545
- IC50 [1]: > 500 µM
- EC50 [2]: 0.011 ± 0.006 µM

Compound: CN(C)c1ccc2nc3ccc(=[N+](C)C)cc-3[nH]c2c1 [N, 3,7-Bis(dimethylamino)phenazinium chloride]
- LD50 (fibroblast cells (3T6)): 136 ± 19.3 (4) μM
- IC50 [1]: 93.1 ± 17 µM

Compound: FC(F)(F)C1=c2cc3c4c(c2Oc2c1cc1c5c2CCCN5CCC1)CCC[N+]=4CCC3 [C, 8-(trifluoromethyl)-2,3,5,6,11,12,14,15-octahydro-1H,4H,10H,13H-diquinolizino[9,9a,1-bc;9′,9a′1′-hi]xanthylium perchlorate]
- LD50 (fibroblast cells (3T6)): 5.99 ± 2.6 (4) μM
- RxI (fibroblast cells (3T6)): 13
- IC50 [1]: 461 ± 130 µM
- EC50 [2]: 0.47 µM

Compound: Cl.Cl.c1cc2c(cc1N1CCCC1)Oc1cc(N3CCCC3)ccc1C2 [Compound AJ, 3,6-Bis-pyrrolidino xanthene dihydrochloride]
- LD50 (fibroblast cells (3T6)): 125 ± 57 (10) μM
- RxI (fibroblast cells (3T6)): 334
- IC50 [1]: > 500 µM
- EC50 [2]: 0.37 ± 0.1 µM

Compound: CCN(CC)c1ccc2c(c1)Oc1cc(N(CC)CC)ccc1C2 [Compound H, 3,6-bis-diethylamino xanthene dihydrochloride]
- LD50 (fibroblast cells (3T6)): 113 ± 18 (11) μM
- RxI (fibroblast cells (3T6)): 2093
- IC50 [1]: > 500 µM
- EC50 [2]: 0.054 ± 0.01 µM

Compound: CC1(C)CCN2CCC(C)(C)c3c4c(cc1c32)C=c1cc2c3c(c1O4)C(C)(C)CC[N+]=3CCC2(C)C [Compound AE, 1,1,7,7,11,11,17,17-Octamethyl-2,3,6,7,12,13,16,17-octahydro-1H,5H,11H,15H-diquinolizino[1,9-bc;1′,9′-hi]xanthylium nitrate]
- LD50 (fibroblast cells (3T6)): 21 ± 8 (7) μM
- RxI (fibroblast cells (3T6)): 412
- IC50 [1]: 324 ± 87.1 µM
- EC50 [2]: 0.051 ± 0.012 µM

Compound: Cc1cc(N(C)C)cc2[s+]c3cc(N(C)C)cc(C)c3nc12 [DMMTC, reference compound]
- LD50 (fibroblast cells (3T6)): 2.7 ± 1.2 (6) μM
- RxI (fibroblast cells (3T6)): 67
- IC50 [1]: 3.4 ± 0.2 µM
- EC50 [2]: 0.04 ± 0.004 µM

Compound: CCN(CC)c1ccc2nc3ccc(N(C)C)cc3nc2c1.Cl [AM, 3-Diethylamino-7-dimethylaminophenazinium chloride]
- LD50 (fibroblast cells (3T6)): 93 ± 19 (6) μM
- RxI (fibroblast cells (3T6)): 85
- IC50 [1]: 634 µM
- EC50 [2]: 1.1 ± 0.24 µM

Compound: CN(C)c1ccc2cc3ccc(N(C)C)cc3[s+]c2c1.[Cl-].[Cl-].[Cl-].[Zn+2] [L, 3,6-bis(dimethylamino)thioxanthylium zinc trichloride]
- LD50 (fibroblast cells (3T6)): 22 ± 8.6 (3) μM
- RxI (fibroblast cells (3T6)): 73
- IC50 [1]: 21.7 ± 2.7 µM
- EC50 [2]: 0.3 µM

Compound: O=[N+]([O-])[O-].c1cc2cc3ccc(N4CCOCC4)cc3[o+]c2cc1N1CCOCC1 [Compound AF, 3,6-Bis-morpholino-xanthylium nitrate]
- LD50 (fibroblast cells (3T6)): 144 ± 67 (10) μM
- RxI (fibroblast cells (3T6)): 7
- IC50 [1]: 187 ± 28.3 µM
- EC50 [2]: 22 ± 4.2 µM
